Source: patent US20110117120A1, “Plasmodium falciparum HLA class I restricted T-cell epitopes” (priority 2009, published 2011)
No end group written: not given here.

Key:
Type in all cases: cell-based, human
[1] = tested on: CD4+ or CD8+ T cell depleted PBMC; test: ELISpot IFN-γ assay after CD4+ or CD8+ T cell depletion of PBMC (Example 1); design: % change of ELISpot activity, CD8 dep vs control: concentration or dose not given beside the values; ELISpot IFN-γ activity, Control dep / ELISpot IFN-γ activity, CD4 dep / ELISpot IFN-γ activity, CD8 dep: unit not given here; conditions: for ELISpot IFN-γ activity, CD4 dep: CD4+ T cells depleted; for ELISpot IFN-γ activity, CD8 dep: CD8+ T cells depleted; for ELISpot IFN-γ activity, Control dep: mock depletion
Description: (§1) PBMC population depletion was conducted using anti-human CD4+ and anti-CD8^+ coated Dynabeads™ M-450 (Dynal, Great Neck, N.Y.) following the manufacturer's instructions. Mock depletion was done with Dynabeads coated with Sheep anti-mouse IgG. Flow cytometry confirmed that T-cell subset depletions were >99% in all experiments. The data is presented as the % effect (decrease) in activity after T cell subset depletion.
Finally, we wanted to confirm that indeed the responses to AMA14e were mediated by CD8^+ T cells. We compared activity to AMA14e in ELISpot depletion assays and ICS CD4^+ or CD8^+ T cell IFN-γ assays with Ap1-12 and recombinant AMA1 protein with v001 and v005 (FIG. 3). CD8^+ T cell depletion reduced ELISpot activity to AMA14e by about 85% in v001 and 95% in v005.

PBMC = test: ELISpot IFN-γ assay with PBMC of Ad5-PfCA immunized volunteers (Example 1); conditions: for IFN-γ ELISpot activity of individual 15-mer peptide: threshold 40 SFC/million
Description: In order to assess the pools for their ability to induce T-cell responses, specifically CD 8^+ responses, PBMC, 1 month post immunization were used, from the five volunteers in Table 1, in ELISpot assays. In these studies, IFN-γ activity was measured in response to exposure to the peptide pools. The assays were conducted essentially as described by Wang, et al., Proc. Natl. Acad. Sci. (U.S.A.), 98: 10817-22.
The stimulation of circulating antigen-specific T cell lymphocytes was evaluated by measurement of γ-IFN induction by ELISPOT. The ELISpot assay was conducted using thawed cryopreserved PBMC at 200 K cells per well. Pre-challenge cells were taken at day 21 and day 22 post AdPfCA vaccination. Cells were suspended in […] complete medium and were stimulated with AMA1 peptides suspended in […] of complete medium. Peptide concentrations used in assays was 10 μg/ml of each peptide tested. Cultures were incubated for 36 h at 37° C., 5% CO2. Depending on availability of cells, each PBMC sample was assayed in duplicate, triplicate, or quadruplicate and the number of IFN-γ-secreting cells recognized as spot-forming cells (SFC) was enumerated using an automated ELISpot reader. In duplicate assays, all values were used in analysis. For triplicate or quadruplicate assays, outliers were rejected if any single value contributed more than 50% of the standard deviation of the triplicate (or quadruplicate) and if its value was three-fold greater or less than the average of the remaining two (or three) values. The mean spot forming cells (SFCs) obtained in negative control wells were subtracted from the value of each test well from the same sample. Negative counts generated by this background subtraction were converted to zero. The mean spot number of the test sample was then calculated and expressed as SFC/million PBMCs. Values obtained with pre-vaccinated samples were subtracted from the post-vaccination values.

[2] = tested on: CD4+ and CD8+ T cells of PBMC; test: Intracellular cytokine staining (ICS) of CD4+ and CD8+ T cells; conditions: HLA-matched volunteers; FIG. 1 upper panel
Description: ICS was performed on PBMCs with costimulatory antibodies anti-CD28 and […] (obtained from BD Bioscience™, San Jose, Calif.). The peptides were used at the same concentrations as in ELISpot assays. Stimulants were added t cells and incubated at 37° C. with 5% CO2 for 2 hr. Golgi Plug™ (Brefeldin A) (BD Bioscience™, San Jose, Calif.) was added at a final concentration of 0.6 μL/mL and incubated at 37° C. with 5% CO2 overnight. Cells were stained with anti-CD3 (Alexa Fluor 700™), anti-CD4 (PerCP™), and anti-CD8 Pacific Blue™ (obtained from BD Bioscience™, San Jose, Calif.). and 1 μg/mL of live/dead fixable blue dye, incubated and washed. Cells were permeabilized with Cytofix/Cytoperm™ solution (obtained from BD Bioscience™, San Jose, Calif.), incubated and washed. Cells were stained intracellularly with anti-CD3 ([…]), anti-CD4 (PerCP™), and anti-CD8 Pacific Blue™, anti-IFN-γ FITC, anti-TNF PE, and anti-IL2 APC, incubated and washed. Cells were resuspended and the entire available sample was acquired by flowcytometry. The gating strategy included progressively measuring total cells; viable cells only; lymphocytes; T cells; CD4^+ CD8^+ populations; and a specific cell type expressing a specific cytokine. Histograms were used to determine the total production of IFN-γ, IL2, and TNF for the CD4^+ and CD8^+ populations. Boolean gates were used to determine cells producing combinations of cytokines.
In these studies, T cells containing IFN-γ, IL2, or TNFα, were gated into different subsets: IFN-γ+, IL2+, TNFα−; IFN-γ+, IL2-, TNFα+; IFN-γ+, IL2+, TNFα+; or IFN-γ+, IL2−, TNFα− T cells, and stimulated with the predicted epitopes and their parent peptide pool. The frequency of CD8^+ T cells producing total IFN-γ was far greater than CD4^+ T cell responses (FIG. 1, upper panel), which were extremely low.

[3] = tested on: CD8+ or CD4+ T-cell depleted PBMC; test: ELISpot IFN-γ assay after CD8+ or CD4+ T-cell depletion (Example 2, Table 6)
Description: as §1, with “depletion. […]” for “depletion.”
The results of this study, summarized in Table 6, identified other CD8^+ epitopes, associated specific HLA class I genes.

[4] = Vol. 1550-11, 4 wk post challenge
[5] = Vol. 1550-11, 4 wk post challenge, control

## KEYEYPLHQEHTYQQ [Ap1-13]
[1]; V001
  % change of ELISpot activity, CD4 dep vs control: +133%
  % change of ELISpot activity, CD8 dep vs control: −76%
  ELISpot IFN-γ activity, CD4 dep: 168
  ELISpot IFN-γ activity, CD8 dep: 17
  ELISpot IFN-γ activity, Control dep: 72
PBMC; Volunteer 001
  IFN-γ ELISpot activity of individual 15-mer peptide: 42 SFC/10^6

## TSNNEVVVKEEYKDE [Ap10-13]
[1]; V001
  % change of ELISpot activity, CD4 dep vs control: +148%
  % change of ELISpot activity, CD8 dep vs control: −88%
  ELISpot IFN-γ activity, CD4 dep: 252
  ELISpot IFN-γ activity, CD8 dep: 13
  ELISpot IFN-γ activity, Control dep: 103
[1]; V012
  % change of ELISpot activity, CD4 dep vs control: +14%
  % change of ELISpot activity, CD8 dep vs control: −100%
  ELISpot IFN-γ activity, CD4 dep: 90
  ELISpot IFN-γ activity, CD8 dep: 0
  ELISpot IFN-γ activity, Control dep: 79
PBMC; Volunteer 001
  IFN-γ ELISpot activity of individual 15-mer peptide: 250 SFC/10^6
PBMC; Volunteer 012
  IFN-γ ELISpot activity of individual 15-mer peptide: 233 SFC/10^6

## QNSDVYRPINEHREH [Ap1-9]
PBMC; Volunteer 001
  IFN-γ ELISpot activity of individual 15-mer peptide: 48 SFC/10^6

## CEIFNVKPTCLINNS [Ap8-12]
PBMC; Volunteer 005
  IFN-γ ELISpot activity of individual 15-mer peptide: 127 SFC/10^6

## NEVVVKEEY [Epitope 1, NEVVVKEEY]
[2]
  CD8^+ T cell IFN-γ response in ICS: equal or more CD8^+ IFN-γ than the parent peptide pool

## MTLDEMRHFYKDNKY [Ap4-10]
PBMC; Volunteer 002
  IFN-γ ELISpot activity of individual 15-mer peptide: 82 SFC/10^6
PBMC; Volunteer 005
  IFN-γ ELISpot activity of individual 15-mer peptide: 118 SFC/10^6

## NSTCRFFVCK (listed as Plasmodium falciparum)
[3]; [4]
  CD4^+ depletion % change: 26%
  CD8^+ Depletion % change: 100%
[3]; Vol. 1550-11, 4 wk post challenge, CD4+ depleted
  CD4^+ depletion, test: 153 SFC/10^6
[3]; Vol. 1550-11, 4 wk post challenge, CD8+ depleted
  CD8^+ Depletion, test: 0 SFC/10^6
[3]; [5]
  CD4^+ depletion, control: 207 SFC/10^6
  CD8^+ Depletion, control: 207 SFC/10^6
[3]; primarily attributable to CD8^+ T-cell response
  T-cell response in ELISpot: stimulated a significant T-cell response

## EDIPHVNEFPAIDLF [Ap7-3]
PBMC; Volunteer 001
  IFN-γ ELISpot activity of individual 15-mer peptide: 139 SFC/10^6

## CNKLVFELSASDQPK [Ap7-7]
PBMC; Volunteer 001
  IFN-γ ELISpot activity of individual 15-mer peptide: 77 SFC/10^6

## LMSPMTLDEMRHFYK [Ap4-9]
[1]; V005
  % change of ELISpot activity, CD4 dep vs control: −32%
  % change of ELISpot activity, CD8 dep vs control: −100%
  ELISpot IFN-γ activity, CD4 dep: 137
  ELISpot IFN-γ activity, CD8 dep: 1
  ELISpot IFN-γ activity, Control dep: 204
PBMC; Volunteer 002
  IFN-γ ELISpot activity of individual 15-mer peptide: 189 SFC/10^6
PBMC; Volunteer 005
  IFN-γ ELISpot activity of individual 15-mer peptide: 395 SFC/10^6

## HPKEYEYPL (listed as Plasmodium falciparum) [Epitope 9]
[2]
  CD8^+ T cell IFN-γ response in ICS: equal or more CD8^+ IFN-γ than the parent peptide pool

## EMRHFYKDNKYVKNL [Ap4-11]
PBMC; Volunteer 005
  IFN-γ ELISpot activity of individual 15-mer peptide: 65 SFC/10^6
PBMC; v005, PBMC 1 month
  ELISpot activity of 1 month PBMC: 65 sfc/m
